How the values were obtained:
[1] = system: bleomycin-induced lung fibrosis; details: rats; by downregulating the TGF-β1/Smad3 signalling pathway; cited from earlier work
Tendon injury = assay: Tendon injury, recovery following treatment with Vitamin A (Example 3); format: in vivo; details: Horse subject 1 (polo pony); oral 750,000 IU twice daily, at least 4 weeks; started approximately 20 days after injury
Source text: [table] Treatment with Vitamin A was initiated approximately 20 days after the initial injury. Retinyl palmitate (93.8% Retinol Equivalent) Oral 750,000 IU Twice daily (1,500,000 IU per day) Continuing (at least 4 weeks)

Row | SMILES | Effect on bleomycin-induced lung fibrosis [1] | Functional recovery (Tendon injury) | Size of the lesion by ultrasonography (Tendon injury)
1 | CC1=C(/C=C/C(C)=C/C=C/C(C)=C/C(=O)O)C(C)(C)CCC1 [RA] | ameliorates bleomycin-induced lung fibrosis |  | 
2 | CCCCCCCCCCCCCCCC(=O)OC/C=C(C)/C=C/C=C(C)/C=C/C1=C(C)CCCC1(C)C [Vitamin A, Retinyl palmitate] |  | good | good reduction in the size of the lesion

Source: patent US20230157975A1, “TREATMENT OF PULMONARY FIBROSIS” (REGENALL LIMITED, priority 2020, published 2023)
